Legend:
Mus musculus [1] = assay: Cytotoxicity against sc transplanted Mam-17/0 tumors of mouse origin, activity expressed as %body wt. loss at the dose of 620 mg/kg, iv; type: functional
Mus musculus [2] = assay: Cytotoxicity against iv transplanted AML1498 tumors of mouse origin, activity expressed as %body wt. loss at the dose of 165 mg/kg, iv; type: functional
Mus musculus [3] = assay: Cytotoxicity against sc transplanted Mam-16/C/Taxol tumors of mouse origin, activity expressed as cures at the dose of 480 mg/kg, iv; 0/5 cures; type: functional
Mus musculus [4] = assay: Cytotoxicity against sc transplanted Mam-17/Adr tumors of mouse origin, activity expressed as log10 Kill at the dose of 620 mg/kg, iv; type: functional, organism-based; parameters: dose 620 mg/kg
Mus musculus [5] = assay: Cytotoxicity against sc transplanted colon-38 tumors of mouse origin, activity expressed as %T/C value at the dose of 546 mg/kg, iv; type: functional
Mus musculus [6] = assay: Cytotoxicity against sc transplanted Mam-17/0 tumors of mouse origin, activity expressed as cures at the dose of 620 mg/kg, iv;p 0/5 cures; type: functional
Mus musculus [7] = assay: Cytotoxicity against sc transplanted Mam-16/C tumors of mouse origin, activity expressed as cures at the dose of 525 mg/kg, iv; 1/5 cures; type: functional
Mus musculus [8] = assay: Cytotoxicity against sc transplanted colon-26 tumors of mouse origin, activity expressed as log10 Kill at the dose of 300 mg/kg, iv; type: functional, organism-based; parameters: dose 300 mg/kg
Mus musculus [9] = assay: Cytotoxicity against sc transplanted colon-26 tumors of mouse origin, activity expressed as %body wt. loss at the dose of 300 mg/kg, iv; type: functional
Mus musculus [10] = assay: Cytotoxicity against sc transplanted Panc-02 tumors of mouse origin, activity expressed as log10 Kill at the dose of 600 mg/kg, iv; type: functional, organism-based; parameters: dose 600 mg/kg
Mus musculus [11] = assay: Cytotoxicity against sc transplanted Mam-17/Adr tumors of mouse origin, activity expressed as cures at the dose of 620 mg/kg, iv; 0/5 cures; type: functional
Mus musculus [12] = assay: Cytotoxicity against sc transplanted colon-51 tumors of mouse origin, activity expressed as T/C(%) at the dose of 980 mg/kg, po; type: functional
Mus musculus [13] = assay: Cytotoxicity against sc transplanted L1210 tumors of mouse origin, activity expressed as log10 Kill at the dose of 332 mg/kg, iv; type: functional, organism-based; parameters: dose 332 mg/kg
Mus musculus [14] = assay: In vivo activity tested against C3H mice bearing panc-03 murine tumor, measured as cures at 328 mg/kg (po); 4/6 cures; type: functional
Mus musculus [15] = assay: In vivo activity tested against C3H mice bearing panc-03 murine tumor measured as activity rating at 328 mg/kg (po); type: functional
Mus musculus [16] = assay: In vivo activity tested against C3H mice bearing panc-03 murine tumor measured as body weight loss at 328 mg/kg (po); type: functional
Mus musculus [17] = assay: In vivo activity tested against C3H mice bearing mammary adenocarcinoma -17/ADR tumor measured as activity rating at 620 mg/kg (po); type: functional
Mus musculus [18] = assay: Cytotoxicity against sc transplanted Mam-16/C tumors of mouse origin, activity expressed as %T/C at the dose of 525 mg/kg, iv; type: functional
Mus musculus [19] = assay: Cytotoxicity against sc transplanted Panc-02 tumors of mouse origin, activity expressed as %body wt. loss at the dose of 600 mg/kg, iv; type: functional
Mus musculus [20] = assay: Cytotoxicity against sc transplanted Mam-17/Adr tumors of mouse origin, activity expressed as T/C(%) at the dose of 620 mg/kg, iv; type: functional
Mus musculus [21] = assay: Cytotoxicity against sc transplanted Mam-17/0 tumors of mouse origin, activity expressed as T/C(%) at the dose of 620 mg/kg, iv; type: functional
Mus musculus [22] = assay: Cytotoxicity against iv transplanted L1210 tumors of mouse origin, activity expressed as %ILS at the dose of 300 mg/kg, iv; type: functional
Mus musculus [23] = assay: Cytotoxicity against sc transplanted DMS273 sm cell tumors of mouse and human origin, activity expressed as cures at the dose of 175 mg/kg, iv; 0/6 cures; type: functional
Mus musculus [24] = assay: Cytotoxicity against sc transplanted L1210 tumors of mouse origin, activity expressed as %body wt. loss at the dose of 332 mg/kg, iv; type: functional
Mus musculus [25] = assay: In vivo activity tested against C3H mice bearing mammary adenocarcinoma -17/ADR tumor measured as log Kill value was based on tumors that grew at 620 mg/kg (po); type: functional, organism-based; parameters: dose 620 mg/kg
Mus musculus [26] = assay: Cytotoxicity against sc transplanted Mam-16/C/Adr tumors of mouse origin, activity expressed as T/C(%) at the dose of 400 mg/kg, iv; type: functional
Mus musculus [27] = assay: Cytotoxicity against sc transplanted Mam-16/C tumors of mouse origin, activity expressed as %body wt loss at the dose of 525 mg/kg, iv; type: functional
Mus musculus [28] = assay: In vivo activity tested against C3H mice bearing mammary adenocarcinoma -17/ADR tumor measured as % treated/control calculated at 620 mg/kg (po); type: functional
Mus musculus [29] = assay: Cytotoxicity against iv transplanted AML1498 tumors of mouse origin, activity expressed as log10 Kill at the dose of 165 mg/kg, iv; type: functional, organism-based; parameters: dose 165 mg/kg
Mus musculus [30] = assay: Cytotoxicity against sc transplanted L1210 tumors of mouse origin, activity expressed as T/C(%) at the dose of 332 mg/kg, iv; type: functional
Mus musculus [31] = assay: Cytotoxicity against sc transplanted Mam-16/C/Adr tumors of mouse origin, activity expressed as […] at the dose of 400 mg/kg, iv; type: functional, organism-based; parameters: dose 400 mg/kg
Mus musculus [32] = assay: Cytotoxicity against sc transplanted DMS273 sm cell tumors of mouse and human origin, activity expressed as T/C(%) at the dose of 175 mg/kg, iv; type: functional
Mus musculus [33] = assay: Cytotoxicity against sc transplanted Mam-16/C/Taxol tumors of mouse origin, activity expressed as %T/C at the dose of 480 mg/kg, iv; type: functional
Mus musculus [34] = assay: Cytotoxicity against sc transplanted Mam-16/C tumors of mouse origin, activity expressed as log kill at the dose of 525 mg/kg, iv; type: functional, organism-based; parameters: dose 525 mg/kg
Mus musculus [35] = assay: In vivo activity tested against C3H mice bearing panc-03 murine tumor measured as% treated/control calculated at 328 mg/kg (po); type: functional
Mus musculus [36] = assay: Cytotoxicity against sc transplanted Mam-16/C/Adr tumors of mouse origin, activity expressed as %body wt. loss at the dose of 400 mg/kg, iv; type: functional
Mus musculus [37] = assay: Cytotoxicity against sc transplanted Panc-03 tumors of mouse […] origin, activity expressed as %body wt loss at the dose of 328 mg/kg, po; type: functional
Mus musculus [38] = assay: Cytotoxicity against sc transplanted L1210 tumors of mouse origin, activity expressed as cures at the dose of 332 mg/kg, iv; 0/5 cures; type: functional
Mus musculus [39] = assay: Cytotoxicity against sc transplanted DMS273 sm cell tumors of mouse and human origin, activity expressed as log10 Kill at the dose of 175 mg/kg, iv; type: functional, organism-based; parameters: dose 175 mg/kg
Mus musculus [40] = assay: Cytotoxicity against sc transplanted Mam-17/Adr tumors of mouse origin, activity expressed as %body wt. loss at the dose of 620 mg/kg, iv; type: functional
Mus musculus [41] = assay: Cytotoxicity against sc transplanted Mam-16/C/Taxol tumors of mouse origin, activity expressed as %log kill at the dose of 480 mg/kg, iv; type: functional, organism-based; parameters: dose 480 mg/kg

**Q.** Which Body weight loss (Mus musculus [1]) does the source give for `CC(Oc1ccc(Oc2cnc3ccc(Cl)cc3n2)cc1)C(=O)O` (stereo unspecified) here?
**A.** The Body weight loss was -12%.

**Q.** And the Body weight loss (Mus musculus [2])?
**A.** Its Body weight loss is -7%.

**Q.** And the Cures (Mus musculus [3])?
**A.** Its Cures is 0.

**Q.** What about the Log kill (Mus musculus [4]) of the same molecule?
**A.** The Log kill was 3.9.

**Q.** What about the T/C (Mus musculus [5]) of the same molecule?
**A.** Its T/C is 0%.

**Q.** What about the Cures (Mus musculus [6]) of the same molecule?
**A.** The Cures was 0.

**Q.** What about the Cures (Mus musculus [7]) of the same molecule?
**A.** The Cures was 1.

**Q.** What about the Log kill (Mus musculus [8]) of the same molecule?
**A.** Its Log kill is 1.3.

**Q.** And the Body weight loss (Mus musculus [9])?
**A.** Its Body weight loss is -12%.

**Q.** And the Log kill (Mus musculus [10])?
**A.** The Log kill was 2.8.

**Q.** And the Cures (Mus musculus [11])?
**A.** Its Cures is 0.

**Q.** And the T/C (Mus musculus [12])?
**A.** Its T/C is 0%.

**Q.** What about the Log kill (Mus musculus [13]) of the same molecule?
**A.** Its Log kill is 0.8.

**Q.** What about the Cures (Mus musculus [14]) of the same molecule?
**A.** Its Cures is 4.

**Q.** And the Activity rating (Mus musculus [15])?
**A.** The Activity rating was greater than 2.8.

**Q.** And the Body weight loss (Mus musculus [16])?
**A.** Its Body weight loss is -4%.

**Q.** And the Activity rating (Mus musculus [17])?
**A.** The Activity rating was greater than 2.8.

**Q.** And the T/C (Mus musculus [18])?
**A.** The T/C was 0%.

**Q.** And the Body weight loss (Mus musculus [19])?
**A.** Its Body weight loss is -3%.

**Q.** And the T/C (Mus musculus [20])?
**A.** Its T/C is 2%.

**Q.** And the T/C (Mus musculus [21])?
**A.** Its T/C is 10%.

**Q.** What about the ILS at 300 mg/kg (Mus musculus [22]) of the same molecule?
**A.** The ILS at 300 mg/kg was 160%.

**Q.** What about the Cures (Mus musculus [23]) of the same molecule?
**A.** Its Cures is 0.

**Q.** And the Body weight loss (Mus musculus [24])?
**A.** The Body weight loss was -16%.

**Q.** And the Log kill (Mus musculus [25])?
**A.** Its Log kill is 3.9.

**Q.** What about the T/C (Mus musculus [26]) of the same molecule?
**A.** The T/C was 0%.

**Q.** What about the Body weight loss (Mus musculus [27]) of the same molecule?
**A.** Its Body weight loss is -9%.

**Q.** What about the T/C (Mus musculus [28]) of the same molecule?
**A.** Its T/C is 2%.

**Q.** And the Log kill (Mus musculus [29])?
**A.** Its Log kill is 2.

**Q.** And the T/C (Mus musculus [30])?
**A.** The T/C was 30%.

**Q.** And the Log kill (Mus musculus [31])?
**A.** Its Log kill is 4.1.

**Q.** What about the T/C (Mus musculus [32]) of the same molecule?
**A.** The T/C was 14%.

**Q.** And the T/C (Mus musculus [33])?
**A.** The T/C was 14%.

**Q.** What about the Log kill (Mus musculus [34]) of the same molecule?
**A.** The Log kill was 5.2.

**Q.** And the T/C (Mus musculus [35])?
**A.** The T/C was 0%.

**Q.** And the Body weight loss (Mus musculus [36])?
**A.** The Body weight loss was -9%.

**Q.** And the Body weight loss (Mus musculus [37])?
**A.** The Body weight loss was -4%.

**Q.** And the Cures (Mus musculus [38])?
**A.** The Cures was 0.

**Q.** What about the Log kill (Mus musculus [39]) of the same molecule?
**A.** The Log kill was 1.6.

**Q.** And the Body weight loss (Mus musculus [40])?
**A.** The Body weight loss was -4%.

**Q.** What about the Log kill (Mus musculus [41]) of the same molecule?
**A.** The Log kill was 2.7.
